Reference: patent US20170370929A1, “POSITIVE ALLOSTERIC MODULATORS OF THE DELTA-OPIOID RECEPTOR” (BRISTOL-MYERS SQUIBB COMPANY, priority 2014, published 2017)
pEC50: −log10 of the molar value.

What was measured:
δ receptor = δ receptor (Homo sapiens, UniProt P41143); test: PathHunter β-arrestin recruitment assay in CHO-OPRD1 cells; assay type: cell-based
μ receptor = μ receptor (Homo sapiens, UniProt P35372); test: PathHunter β-arrestin recruitment assay in CHO-OPRM1 cells; assay type: cell-based; conditions: PAM mode, up to the highest concentration tested (10 μM)
Sequence of μ receptor (P35372 whole entry): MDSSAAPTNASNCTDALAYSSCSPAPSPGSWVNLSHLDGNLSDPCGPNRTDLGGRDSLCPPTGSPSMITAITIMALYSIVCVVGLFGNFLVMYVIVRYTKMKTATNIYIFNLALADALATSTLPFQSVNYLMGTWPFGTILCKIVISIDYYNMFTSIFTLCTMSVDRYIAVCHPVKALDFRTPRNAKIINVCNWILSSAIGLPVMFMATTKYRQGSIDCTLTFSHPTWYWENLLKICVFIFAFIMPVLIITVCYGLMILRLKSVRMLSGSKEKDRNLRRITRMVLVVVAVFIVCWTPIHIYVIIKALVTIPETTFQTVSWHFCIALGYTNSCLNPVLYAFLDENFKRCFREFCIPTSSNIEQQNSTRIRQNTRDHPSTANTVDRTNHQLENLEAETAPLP

Sequence of δ receptor (P41143 whole entry): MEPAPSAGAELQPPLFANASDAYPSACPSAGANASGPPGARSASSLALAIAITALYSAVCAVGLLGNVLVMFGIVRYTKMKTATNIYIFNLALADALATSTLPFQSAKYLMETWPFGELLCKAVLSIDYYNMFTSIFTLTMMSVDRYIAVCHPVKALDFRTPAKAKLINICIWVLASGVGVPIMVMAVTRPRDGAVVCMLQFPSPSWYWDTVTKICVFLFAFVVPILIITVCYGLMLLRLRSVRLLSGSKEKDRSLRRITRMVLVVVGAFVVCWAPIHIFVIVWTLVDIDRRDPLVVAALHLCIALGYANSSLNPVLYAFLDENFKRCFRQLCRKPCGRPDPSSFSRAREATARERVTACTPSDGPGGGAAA

pEC50 (δ receptor; PAM mode, in the presence of an EC20 of leu-enkephalin, CHO-OPRD1 cells) | selectivity compared with PAM activity at the μ receptor (δ receptor; β-arrestin recruitment assay, δ versus μ receptor PAM activity) [fold] | PAM activity at the δ receptor (in words) (δ receptor; PAM mode, β-arrestin recruitment) | PAM activity at the μ receptor (μ receptor) | Compound
6.70 | 30 | – | – | CC1(C)CC(=O)C2=C(C1)OC1=C(C(=O)CC(C)(C)C1)C2c1ccc(OCc2ccccc2)cc1 [Analog 1]
– | – | equipotent PAM activity to 2 | no observable PAM activity | CC1(C)CC(=O)C2=C(C1)OC1=C(C(=O)CC(C)(C)C1)C2c1ccc(OCc2ccccc2Br)cc1 [Analog 10, 9-(4-((2-bromobenzyl)oxy)phenyl)-3,3,6,6-tetramethyl-3,4,5,6,7,9-hexahydro-1H-xanthene-1,8(2H)-dione]
